{
  "source": "patent US20250296934A1",
  "about": "“AZEPINOINDOLES AND METHODS OF PREPARATION THEREOF” (priority 2022, published 2025)",
  "key": {"5-HT1A": {"target": "T1, 5-HT1A (Homo sapiens, UniProt P08908)", "T1 sequence (P08908 1-422)": "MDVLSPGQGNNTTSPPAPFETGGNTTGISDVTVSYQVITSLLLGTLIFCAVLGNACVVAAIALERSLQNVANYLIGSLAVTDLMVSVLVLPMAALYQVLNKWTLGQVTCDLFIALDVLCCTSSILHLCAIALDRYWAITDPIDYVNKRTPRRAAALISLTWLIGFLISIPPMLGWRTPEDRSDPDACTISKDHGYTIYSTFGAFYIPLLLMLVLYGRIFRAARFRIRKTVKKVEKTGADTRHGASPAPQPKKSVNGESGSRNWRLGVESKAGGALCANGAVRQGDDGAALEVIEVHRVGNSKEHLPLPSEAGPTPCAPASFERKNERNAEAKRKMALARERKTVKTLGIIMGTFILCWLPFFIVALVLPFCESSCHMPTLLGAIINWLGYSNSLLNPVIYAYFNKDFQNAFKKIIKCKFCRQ", "assay": "5-HT receptor activity (Table 3), 5-HT1A", "type": "cell-based"}, "5-HT1B": {"target": "5-HT1B (Homo sapiens, UniProt P28222)", "sequence (P28222 whole entry, species assumed)": "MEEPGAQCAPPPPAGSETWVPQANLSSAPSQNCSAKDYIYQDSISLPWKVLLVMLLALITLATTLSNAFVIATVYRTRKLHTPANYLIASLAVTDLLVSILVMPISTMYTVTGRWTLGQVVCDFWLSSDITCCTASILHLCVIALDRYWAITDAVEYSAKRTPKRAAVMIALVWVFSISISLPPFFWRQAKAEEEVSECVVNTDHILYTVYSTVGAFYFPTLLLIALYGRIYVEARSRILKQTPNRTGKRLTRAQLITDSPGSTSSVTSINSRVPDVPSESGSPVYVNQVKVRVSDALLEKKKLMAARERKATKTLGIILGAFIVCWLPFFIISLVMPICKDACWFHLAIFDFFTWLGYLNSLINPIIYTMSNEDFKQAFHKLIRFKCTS", "assay": "5-HT receptor activity (Table 3), 5-HT1B", "type": "cell-based"}, "5-HT1F": {"target": "T2, 5-HT1F (Homo sapiens, UniProt P30939)", "T2 sequence (P30939 1-366)": "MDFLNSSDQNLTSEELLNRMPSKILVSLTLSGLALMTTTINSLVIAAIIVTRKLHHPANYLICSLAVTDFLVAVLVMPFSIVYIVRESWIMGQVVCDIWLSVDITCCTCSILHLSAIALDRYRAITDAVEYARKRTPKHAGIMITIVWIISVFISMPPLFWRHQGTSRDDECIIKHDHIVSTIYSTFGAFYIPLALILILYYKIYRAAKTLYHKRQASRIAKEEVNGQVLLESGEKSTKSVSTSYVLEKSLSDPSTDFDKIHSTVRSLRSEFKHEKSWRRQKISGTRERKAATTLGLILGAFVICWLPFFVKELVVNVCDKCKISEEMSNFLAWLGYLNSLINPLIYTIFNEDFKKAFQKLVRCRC", "assay": "5-HT receptor activity (Table 3), 5-HT1F", "type": "cell-based"}, "5-HT2A [1]": {"target": "T3, 5-HT2A (Homo sapiens, UniProt P28223)", "T3 sequence (P28223 whole entry)": "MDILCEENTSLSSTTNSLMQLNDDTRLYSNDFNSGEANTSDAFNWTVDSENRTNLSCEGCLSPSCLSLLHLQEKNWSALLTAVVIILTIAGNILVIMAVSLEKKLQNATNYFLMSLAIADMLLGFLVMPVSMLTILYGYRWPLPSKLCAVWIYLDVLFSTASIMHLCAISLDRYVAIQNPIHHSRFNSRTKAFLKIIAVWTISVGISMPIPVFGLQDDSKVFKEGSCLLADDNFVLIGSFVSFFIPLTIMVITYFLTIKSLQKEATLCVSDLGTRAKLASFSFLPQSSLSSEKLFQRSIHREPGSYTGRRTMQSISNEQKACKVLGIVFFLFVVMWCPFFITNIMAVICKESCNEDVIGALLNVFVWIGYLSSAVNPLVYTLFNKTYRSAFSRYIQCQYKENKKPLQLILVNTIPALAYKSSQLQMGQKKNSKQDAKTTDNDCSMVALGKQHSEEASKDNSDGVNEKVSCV", "assay": "5-HT receptor activity (Table 3), 5-HT2A", "type": "cell-based"}, "5-HT2C": {"target": "T4, 5-HT2C (Homo sapiens, UniProt P28335)", "T4 sequence (P28335 33-458)": "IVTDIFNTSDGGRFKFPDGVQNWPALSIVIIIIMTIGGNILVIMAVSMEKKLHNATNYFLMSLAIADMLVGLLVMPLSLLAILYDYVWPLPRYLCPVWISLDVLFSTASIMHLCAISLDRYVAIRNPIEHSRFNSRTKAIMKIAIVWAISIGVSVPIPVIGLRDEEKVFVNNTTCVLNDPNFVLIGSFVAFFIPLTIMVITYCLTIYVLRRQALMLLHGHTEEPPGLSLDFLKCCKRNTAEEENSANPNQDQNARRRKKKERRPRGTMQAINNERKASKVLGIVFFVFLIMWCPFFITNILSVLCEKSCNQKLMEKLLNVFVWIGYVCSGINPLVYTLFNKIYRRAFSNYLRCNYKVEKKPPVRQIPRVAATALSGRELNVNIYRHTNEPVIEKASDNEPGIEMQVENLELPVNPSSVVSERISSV", "assay": "cell-based", "conditions": "Table 3"}, "5-HT5A": {"target": "5-HT5A (Homo sapiens, UniProt P47898)", "sequence (P47898 whole entry, species assumed)": "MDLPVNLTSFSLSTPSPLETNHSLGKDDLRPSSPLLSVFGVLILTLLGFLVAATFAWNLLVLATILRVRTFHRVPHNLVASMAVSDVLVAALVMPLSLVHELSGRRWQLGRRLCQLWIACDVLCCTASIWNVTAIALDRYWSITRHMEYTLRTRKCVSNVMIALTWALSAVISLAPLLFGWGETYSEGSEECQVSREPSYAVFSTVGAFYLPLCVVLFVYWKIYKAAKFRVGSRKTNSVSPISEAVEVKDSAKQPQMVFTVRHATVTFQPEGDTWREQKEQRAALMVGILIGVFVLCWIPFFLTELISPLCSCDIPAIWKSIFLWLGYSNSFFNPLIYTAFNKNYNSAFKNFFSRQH", "assay": "5-HT receptor activity (Table 3), 5-HT5A", "type": "cell-based"}, "[2]": {"test_system": "SafetyScreen44™ panel hits", "assay": "Follow up functional assays of SafetyScreen44 hits", "parameters": "species or system human", "protocol": "Various compounds disclosed herein were subjected to an in vitro SafetyScreen44™ panel for identifying off-target activity. Compounds of interest that are identified in the panel are then tested in follow up functional assays to identify if such compounds have a significant off-target risk. […] It is predicted that other compounds share similar characteristics with compound 1 and also lack of the off-target activity."}, "hepatocyte [3]": {"test_system": "hepatocyte", "assay": "In vitro hepatocyte clearance, monkey", "type": "in vitro ADME", "conditions": "Monkey", "protocol": "(§1) Additional experimentation was performed on compounds 1, W5, and A93. Table 6a, 6b and 6c summarize, among other things, the anticipated hepatic clearance of compounds 1, W5 and A93 respectively, in various species, as specified in Table 6a, 6b and 6c and as determined by calculating the in vitro hepatocyte clearance over time and scaling such rate with such species' hepatocyte count and the anticipated liver blood flow rate in such species."}, "[4]": {"assay": "In vitro hepatocyte clearance, dog", "type": "in vitro ADME", "protocol": "as §1"}, "hepatocyte [5]": {"test_system": "hepatocyte", "assay": "In vitro hepatocyte clearance, dog", "type": "in vitro ADME", "conditions": "Dog", "protocol": "as §1"}, "[6]": {"assay": "In vitro hepatocyte clearance, mouse", "type": "in vitro ADME", "conditions": "Mouse hepatocytes", "protocol": "as §1"}, "hepatocyte [7]": {"test_system": "hepatocyte", "assay": "In vitro hepatocyte clearance, mouse", "type": "in vitro ADME", "conditions": "Mouse", "protocol": "as §1"}, "Plasma PK in rat": {"assay": "Plasma PK in rat", "type": "in vivo", "description": "Tables 7a and 7b summarize, among other things, the observed plasma PK properties in animals, for Compound 1: […]"}, "5-HT2A [8]": {"target": "T3, 5-HT2A", "assay": "5-HT2A Gq dissociation BRET functional assay", "type": "cell-based", "parameters": "expressed in transfected cells; host or cells: HEK293T"}},
  "note": "Read-outs that look alike come from different tables or passages of the source.",
  "data": [
    {"smiles": "Cc1ccc(O)c2c3c([nH]c12)CCNCC3", "note": "[Cpd #1 (Pharm-136), 7-Methyl-1,2,3,4,5,6-hexahydroazepino[4,5-b]indol-10-ol]", "values": [
      {"measurement": "EC50", "setting": "5-HT1A", "result": 4000, "unit": "nM"},
      {"measurement": "Eff", "setting": "5-HT1A", "result": 73, "unit": "%"},
      {"measurement": "EC50", "setting": "5-HT1B", "result": 327, "unit": "nM"},
      {"measurement": "Eff", "setting": "5-HT1B", "result": 74, "unit": "%"},
      {"measurement": "EC50", "setting": "5-HT1F", "result": 460, "unit": "nM"},
      {"measurement": "Eff", "setting": "5-HT1F", "result": 56, "unit": "%"},
      {"measurement": "EC50", "setting": "5-HT2A [1]", "result": 0.5, "unit": "nM"},
      {"measurement": "Eff", "setting": "5-HT2A [1]; 5-HT2A, Table 3", "result": 101, "unit": "%"},
      {"measurement": "EC50", "setting": "5-HT2C", "result": 0.5, "unit": "nM"},
      {"measurement": "Eff", "setting": "5-HT2C", "result": 95, "unit": "%"},
      {"measurement": "EC50", "setting": "5-HT5A", "result": "Not active"},
      {"measurement": "Follow up studies", "setting": "[2]", "result": "No significant off-"},
      {"measurement": "Follow up studies", "setting": "[2]; listed as compound 1", "result": "does not possess significant off-target activity"},
      {"measurement": "Hepatic Extraction Ratio (E)", "setting": "hepatocyte [3]", "result": "<0.18"},
      {"measurement": "Predicted hepatic CL", "setting": "hepatocyte [3]", "result": "<7.97", "unit": "mL/min/kg"},
      {"measurement": "hepatocyte CLint", "setting": "[4]; Dog hepatocytes", "result": "< 2.71", "unit": "µL/min/1e6 cells"},
      {"measurement": "half-life", "setting": "[4]; Dog hepatocytes, read-out: In vitro T1/2", "result": "> 8.53", "unit": "h"},
      {"measurement": "CLint scaled", "setting": "[4]; dog, hepatocytes, read-out: Scale-up Clint", "result": "< 18.6", "unit": "mL/min/kg"},
      {"measurement": "Hepatic Extraction Ratio (E)", "setting": "hepatocyte [5]", "result": "<0.38"},
      {"measurement": "Predicted hepatic CL", "setting": "hepatocyte [5]", "result": "<11.62", "unit": "mL/min/kg"},
      {"measurement": "hepatocyte CLint", "setting": "[6]", "result": 33, "unit": "µL/min/1e6 cells"},
      {"measurement": "half-life", "setting": "[6]; read-out: In vitro T1/2", "result": 0.703, "unit": "h"},
      {"measurement": "CLint scaled", "setting": "[6]; read-out: Scale-up Clint", "result": 389, "unit": "mL/min/kg"},
      {"measurement": "Hepatic Extraction Ratio (E)", "setting": "hepatocyte [7]", "result": 0.81},
      {"measurement": "Predicted hepatic CL", "setting": "hepatocyte [7]", "result": 73.10, "unit": "mL/min/kg"},
      {"measurement": "AUC(0-t)", "setting": "Plasma PK in rat; IP, 10 mg/kg", "result": 193, "unit": "ng·h/mL"},
      {"measurement": "Cl_F", "setting": "Plasma PK in rat; IP, 10 mg/kg", "result": 816.02, "unit": "mL/min/kg"},
      {"measurement": "Vz_F", "setting": "Plasma PK in rat; IP, 10 mg/kg", "result": 225.48, "unit": "L/kg"},
      {"measurement": "half-life", "setting": "Plasma PK in rat; IP, 10 mg/kg", "result": 3.3, "unit": "h"},
      {"measurement": "AUC(0-t)", "setting": "Plasma PK in rat; IV, 2.5 mg/kg", "result": 37.5, "unit": "ng·h/mL"},
      {"measurement": "half-life", "setting": "Plasma PK in rat; IV, 2.5 mg/kg", "result": 3.93, "unit": "h"},
      {"measurement": "clearance", "setting": "Plasma PK in rat; IV, 2.5 mg/kg, read-out: Cltot (converted)", "result": 1070, "unit": "mL/min/kg"},
      {"measurement": "Vd", "setting": "Plasma PK in rat; IV, 2.5 mg/kg, read-out: Vss", "result": 0.204, "unit": "L/kg"},
      {"measurement": "Count (n. of wells)", "setting": "TA1537; TA1537 + S9, 1.0E−04M", "result": "0 n. of wells"},
      {"measurement": "Significance", "setting": "TA1537; TA1537 + S9, 1.0E−04M", "result": "Negative"},
      {"measurement": "Count (n. of wells)", "setting": "TA1537; TA1537 + S9, 1.0E−05M", "result": "1 n. of wells"},
      {"measurement": "Significance", "setting": "TA1537; TA1537 + S9, 1.0E−05M", "result": "Negative"},
      {"measurement": "Count (n. of wells)", "setting": "TA1537; TA1537 + S9, 5.0E−05M", "result": "0 n. of wells"},
      {"measurement": "Significance", "setting": "TA1537; TA1537 + S9, 5.0E−05M", "result": "Negative"},
      {"measurement": "Count (n. of wells)", "setting": "TA1537; TA1537 + S9, 5.0E−06M", "result": "2 n. of wells"},
      {"measurement": "Significance", "setting": "TA1537; TA1537 + S9, 5.0E−06M", "result": "Negative"},
      {"measurement": "Count (n. of wells)", "setting": "TA1537; TA1537 − S9, 1.0E−04M", "result": "0 n. of wells"},
      {"measurement": "Significance", "setting": "TA1537; TA1537 − S9, 1.0E−04M", "result": "Negative"},
      {"measurement": "Count (n. of wells)", "setting": "TA1537; TA1537 − S9, 1.0E−05M", "result": "1 n. of wells"},
      {"measurement": "Significance", "setting": "TA1537; TA1537 − S9, 1.0E−05M", "result": "Negative"},
      {"measurement": "Count (n. of wells)", "setting": "TA1537; TA1537 − S9, 5.0E−05M", "result": "0 n. of wells"},
      {"measurement": "Significance", "setting": "TA1537; TA1537 − S9, 5.0E−05M", "result": "Negative"},
      {"measurement": "Count (n. of wells)", "setting": "TA1537; TA1537 − S9, 5.0E−06M", "result": "0 n. of wells"},
      {"measurement": "Significance", "setting": "TA1537; TA1537 − S9, 5.0E−06M", "result": "Negative"},
      {"measurement": "EC50", "setting": "5-HT2A [8]", "result": 0.6, "unit": "nM"},
      {"measurement": "5-HT2A BRET Eff", "setting": "5-HT2A [8]; normalized to % 5-HT stimulation", "result": 102, "unit": "%"}
    ]}
  ]
}
